# According to patent publication US20120196887A1, “METHODS AND COMPOSITIONS FOR IMPROVED RIFAMYCIN THERAPIES” (priority 2011, published 2012):
# Several values for one entry are separate records, joined by “and”; a condition that tells them apart may be missing. Identical values can stand only once. Like-named read-outs stand apart in the source and are kept apart here.
# What was measured:
# [1] = system: Enterotoxigenic Escherichia coli (ETEC) strain H10407; assay: Growth of ETEC strain H10407 with rifaximin in the presence and absence of bile acids (OD600 / cell density); format: cell-based
# [2] = system: Enterotoxigenic Escherichia coli (ETEC) strain H10407; assay: as above; format: cell-based; remark: listed apart in the source
# Procedure: Enterotoxigenic Escherichia coli (ETEC) strain H10407 was used as a model bacteria in all the susceptibility experiments.
# Equimolar concentrations (0.67 mM) of each of these bile acids were pooled (4 mM total bile acids) for the experiments. In order to determine the Total Human Bile Concentration, a sample of human bile taken after cholecystectomy was kindly provided by Dr. David Graham (Department of Medicine, Veterans Affairs Medical Center and the Division of Molecular Virology, Baylor College of Medicine, Houston, Tex., and Director of Study Design and Clinical Research Core, Texas Medical Center Digestive Disease. Center). The total bile acids concentration was determined using the Diazyme Total Bile Acids assay (Diazyme Laboratories, CA) following the protocol provided by the manufacturer.
# In each experiment, an overnight culture of E. coli H10407 was added to the LB media to OD600 of 0.04 (approximately 4×10^7 cells/mL) and incubated for 4-6 hours at 37° C. in a shaker at 200 rpm. Optical density measurements (OD600) were determined every 30 minutes. The experiment was replicated four times and average OD used for the analysis. […]
# [3] = system: Shigella flexneri (serotype 2B); assay: Growth (OD600) and total protein of Shigella flexneri with rifaximin and bile acids; format: cell-based; conditions: 32 μg/mL rifaximin + 4 mM total bile acids
# Procedure: A second culture of Shigella flexneri (serotype 2B) bacteria in LB media to which was added 4 mM of bile acids (comprising an equimolar mixture of each of the bile acids: cholic, deoxycholic, chenodeoxycholic, glycocholic, lithocholic, and taurocholic acids at pH 7.4).
# [4] = system: Enteroaggregative E. coli; assay: Minimal inhibitory concentration (MIC), Enteroaggregative E. coli; format: cell-based; conditions: Escherichia coli; Enteroaggregative strain of E. coli used
# [5] = system: Shigella flexneri (serotype 2B); assay: Minimal inhibitory concentration (MIC), Shigella flexneri; format: cell-based
# [6] = system: Salmonella enterica (ATCC #14028); assay: Minimal inhibitory concentration (MIC), Salmonella enterica; format: cell-based; conditions: ATCC14028
# [7] = system: beta-galactosidase expressed by E. coli H10407; assay: Beta-galactosidase assay (IPTG-induced expression, Miller Units); format: cell-based, Escherichia coli; conditions: rifaximin added to the culture medium (8, 16, 32 μg/mL), no bile acids
# Procedure: Beta-Galactosidase Assay: Beta-galactosidase is an essential enzyme required by E. coli to metabolize lactose during conditions when available glucose levels are low, but lactose levels are high. When expression of beta-galactosidase is inhibited in a media containing limiting amounts of glucose but high amounts of lactose, once the glucose in the media is exhausted bacterial death occurs. […] To, 1.5 mL microfuge tubes, 50 μL of the induced culture was added to 200 μL of permeabilization solution (0.8 mg/mL hexadecyl trimethylammonium bromide (CTAB), 0.4 mg/mL sodium deoxycholate, 200 mM dibasic sodium phosphate (Na2HPO4), 20 mM potassium chloride (KCl), 2 mM magnesium sulfate (MgSO4), and 5.4 μL/mL beta-mercaptoethanol. After 30 minutes incubation at 30° C., 600 μL of substrate solution (60 mM Na2HPO4, 40 mM NaH2PO4, 10 mM KCl, 20 μg/mL CTAB, 1 mg/mL O-nitrophenyl-β-D-galactoside (ONPG), and 2.7 μL/mL β-mercaptoethanol) was added and the time of addition was recorded. The incubation was allowed to continue at 30° C. for 40 minutes, after which 350 μL of 2 M sodium carbonate (Na2CO3) was added to stop the reaction. The assay, tubes were centrifuged at 15000×g for 15 minutes and absorbance measurements at 420 nm were made in triplicate using the supernatants.
# The concentration of β-galactosidase in Miller Units was calculated as: […]
# [8] = system: Enterotoxigenic Escherichia coli (ETEC) strain H10407; conditions: cited from earlier work
# E. coli H10407 = assay: Total protein content of bacteria treated with rifaximin and bile acids (Bradford assay); format: cell-based, Escherichia coli; conditions: 16 μg/mL rifaximin + bile acids vs rifaximin without bile acids; 4 hours incubation
# Procedure: Aliquots (1 mL) of the culture in each tube were taken every hour for total protein determination. In order to lyse the cells and release the protein, 300 μL of permeabilization solution (2.4 mg/mL hexadecyl trimethylammonium bromide, 1.2 mg/mL sodium deoxycholate, 600 mM dibasic sodium phosphate, 60 mM potassium chloride, 6 mM magnesium sulfate, and 16 μL/mL beta-mercaptoethanol) was added. The tubes were incubated for one hour at room temperature and then centrifuged at 15000×g for 20 minutes. The protein concentration was determined in triplicate using the Bradford assay (Bradford, M. M., A rapid and sensitive method for the quantitation of microgram quantities of protein utilizing the principle of protein-dye binding. Anal Biochem. 72:248-54, 1976) using bovine serum albumin (BSA) as the standard. Each experiment was repeated three times with the average and standard deviation reported.
# coliform flora = conditions: cited from earlier work
# [9] = system: Enteroaggregative E. coli; assay: Growth (OD600) and total protein of Enteroaggregative E. coli with rifaximin and bile acids; format: cell-based; conditions: 16 μg/mL rifaximin + 4 mM total bile acids
# Procedure: A second culture of Enteroaggregative E. coli bacteria in LB media to which was added 4 mM of bile acids (comprising an equimolar mixture of each of the bile acids: cholic, deoxycholic, chenodeoxycholic, glycocholic, lithocholic, and taurocholic acids at pH 7.4).
# Clostridium difficile = conditions: cited from earlier work
# [10] = system: Salmonella enterica (ATCC #14028); assay: Growth (OD600) and total protein of Salmonella enterica with rifaximin and bile acids; format: cell-based; conditions: 32 μg/mL rifaximin + 4 mM total bile acids
# Procedure: A second culture of Salmonella enterica bacteria in LB media to which was added 4 mM of bile acids (comprising an equimolar mixture of each of the bile acids: cholic, deoxycholic, chenodeoxycholic, glycocholic, lithocholic, and taurocholic acids at pH 7.4).
# [11] = bile acid alone, no rifaximin, after 4 hours of incubation
# [12] = 4 mM bile acid + 16 μg/mL rifaximin vs 16 μg/mL rifaximin alone, 4 hours
# [13] = bile acid 4 mM combined with 16 μg/mL rifaximin, after 4 hours of incubation
compound,measurement,setting,value
C[C@H](CCC(=O)NCCS(=O)(=O)O)[C@H]1CC[C@H]2[C@@H]3[C@H](O)C[C@@H]4C[C@H](O)CC[C@]4(C)[C@H]3C[C@H](O)[C@]12C [Taurocholic acid],"Cell density, 4 mM BILE ACIDS",[1],14 ± 0.51
same,"Cell density, 4 mM BILE ACIDS + 16 μg/mL RIFAXIMIN",[2],1.1 ± 0.23
same,PERCENT DECREASE IN CELL DENSITY ON ADDITION OF BILE ACIDS TO RIFAXIMIN,[2],77.6% and 77.6 ± 0.77%
"CO[C@H]1/C=C/O[C@@]2(C)Oc3c(C)c(O)c4c(O)c(c5c(nc6cc(C)ccn65)c4c3C2=O)NC(=O)/C(C)=C\C=C\[C@H](C)[C@H](O)[C@@H](C)[C@@H](O)[C@@H](C)[C@H](OC(C)=O)[C@@H]1C [rifaximin, Rifaximin]",effect of adding bile acids to rifaximin on growth and protein synthesis,[3],increases its ability to inhibit the growth and protein synthesis
same,MIC,[4],32 µg/mL
same,MIC,[5],64 µg/mL
same,MIC,[6],64 µg/mL
same,amount of beta-galactosidase produced vs control,[7],decreased in a dose-dependent fashion below the control values
same,inhibition of bacterial growth by rifaximin alone,"[2]; 16 μg/mL rifaximin, absence of bile acids","statistically significant (p=0.026, n=4) inhibition of bacterial growth"
same,increase of anti-ETEC activity on addition of bile acids / human bile to rifaximin,[2]; after 4 hours,greater than 70%
same,"Cell density, 16 μg/mL RIFAXIMIN","[2]; rifaximin alone, no bile acids, after 4 hours of incubation, control of the bile acid named in the row",6.6 ± 0.50 ×10^8 bacteria/milliliter of c and 4.9 ± 1.0 ×10^8 bacteria/milliliter of c
same,in vitro minimal inhibitory concentration (MIC),[8],32 to 128 µg/mL
same,percent decrease in total bacterial protein expression when bile acids added,E. coli H10407,59%
same,average MICs of most coliform flora,coliform flora,about 32 μg/mL
same,effect of adding bile acids to rifaximin on growth and protein synthesis,[9],increases its ability to inhibit the growth and protein synthesis
same,MIC,Clostridium difficile,0.025 µg/mL
same,effect of adding bile acids to rifaximin on growth and protein synthesis,[10],increases its ability to inhibit the growth and protein synthesis
C[C@H](CCC(=O)O)[C@H]1CC[C@H]2[C@@H]3[C@H](O)C[C@@H]4C[C@H](O)CC[C@]4(C)[C@H]3C[C@H](O)[C@]12C [Cholic acid],"Cell density, 4 mM BILE ACIDS",[1]; [11],11 ± 0.46 ×10^8 bacteria/milliliter of c
same,PERCENT DECREASE IN CELL DENSITY ON ADDITION OF BILE ACIDS TO RIFAXIMIN,[2]; [12],95.5 ± 0.80%
same,PERCENT DECREASE IN CELL DENSITY ON ADDITION OF BILE ACIDS TO RIFAXIMIN,"[2]; 4 mM bile acid + 16 μg/mL rifaximin vs 16 μg/mL rifaximin alone, 4 hours, listed as cholic acid",95.5%
same,"Cell density, 4 mM BILE ACIDS + 16 μg/mL RIFAXIMIN",[2]; [13],0.22 ± 0.20 ×10^8 bacteria/milliliter of c
C[C@H](CCC(=O)NCC(=O)O)[C@H]1CC[C@H]2[C@@H]3[C@H](O)C[C@@H]4C[C@H](O)CC[C@]4(C)[C@H]3C[C@H](O)[C@]12C [Glycocholic acid],"Cell density, 4 mM BILE ACIDS",[1]; [11],14 ± 0.32 ×10^8 bacteria/milliliter of c
same,PERCENT DECREASE IN CELL DENSITY ON ADDITION OF BILE ACIDS TO RIFAXIMIN,[2]; [12],80.8 ± 0.40%
same,PERCENT DECREASE IN CELL DENSITY ON ADDITION OF BILE ACIDS TO RIFAXIMIN,"[2]; 4 mM bile acid + 16 μg/mL rifaximin vs 16 μg/mL rifaximin alone, 4 hours, listed as glycocholic acid",80.8%
same,"Cell density, 4 mM BILE ACIDS + 16 μg/mL RIFAXIMIN",[2]; [13],0.94 ± 0.60 ×10^8 bacteria/milliliter of c
C[C@H](CCC(=O)O)[C@H]1CC[C@H]2[C@@H]3CC[C@@H]4C[C@H](O)CC[C@]4(C)[C@H]3CC[C@]12C [Lithocholic acid],"Cell density, 4 mM BILE ACIDS",[1]; [11],6.6 ± 0.25 ×10^8 bacteria/milliliter of c
same,PERCENT DECREASE IN CELL DENSITY ON ADDITION OF BILE ACIDS TO RIFAXIMIN,[2]; [12],43.9 ± 0.73%
same,PERCENT DECREASE IN CELL DENSITY ON ADDITION OF BILE ACIDS TO RIFAXIMIN,"[2]; 4 mM bile acid + 16 μg/mL rifaximin vs 16 μg/mL rifaximin alone, 4 hours, listed as lithocholic acid",43.9%
same,"Cell density, 4 mM BILE ACIDS + 16 μg/mL RIFAXIMIN",[2]; [13],2.8 ± 0.27 ×10^8 bacteria/milliliter of c
C[C@H](CCC(=O)O)[C@H]1CC[C@H]2[C@@H]3[C@H](O)C[C@@H]4C[C@H](O)CC[C@]4(C)[C@H]3CC[C@]12C [Chenodeoxycholic acid],"Cell density, 4 mM BILE ACIDS",[1]; [11],7.0 ± 0.06 ×10^8 bacteria/milliliter of c
same,PERCENT DECREASE IN CELL DENSITY ON ADDITION OF BILE ACIDS TO RIFAXIMIN,[2]; [12],89.2 ± 0.49%
same,PERCENT DECREASE IN CELL DENSITY ON ADDITION OF BILE ACIDS TO RIFAXIMIN,"[2]; 4 mM bile acid + 16 μg/mL rifaximin vs 16 μg/mL rifaximin alone, 4 hours, listed as chenodeoxycholic acid",89.2%
same,"Cell density, 4 mM BILE ACIDS + 16 μg/mL RIFAXIMIN",[2]; [13],0.53 ± 0.51 ×10^8 bacteria/milliliter of c
C[C@H](CCC(=O)O)[C@H]1CC[C@H]2[C@@H]3CC[C@@H]4C[C@H](O)CC[C@]4(C)[C@H]3C[C@H](O)[C@]12C [Deoxycholic acid],"Cell density, 4 mM BILE ACIDS",[1]; [11],3.9 ± 0.34 ×10^8 bacteria/milliliter of c
same,PERCENT DECREASE IN CELL DENSITY ON ADDITION OF BILE ACIDS TO RIFAXIMIN,[2]; [12],93.8 ± 0.51%
same,PERCENT DECREASE IN CELL DENSITY ON ADDITION OF BILE ACIDS TO RIFAXIMIN,"[2]; 4 mM bile acid + 16 μg/mL rifaximin vs 16 μg/mL rifaximin alone, 4 hours, listed as deoxycholic acid",93.8%
same,"Cell density, 4 mM BILE ACIDS + 16 μg/mL RIFAXIMIN",[2]; [13],0.30 ± 0.49 ×10^8 bacteria/milliliter of c
